Measured values reported in US4465676A, “16α Halogen substituted 3,17β-dihydroxy steroidal estrogens” (priority 1980, dated 1984).

Legend:
[1] = biological target: T1, calf uterine estrogen receptor (Bos taurus, UniProt P49884); test: Saturation and Scatchard analysis of the estrogen receptor from calf uterus; assay type: binding; settings: calf uterine cytosol
T1 construct: Fresh calf uteri obtained from a slaughterhouse; from tissue; host or cells: calf uterus, 150,000 x g cytosol from lyophilized powder
T1 sequence (P49884 1-596): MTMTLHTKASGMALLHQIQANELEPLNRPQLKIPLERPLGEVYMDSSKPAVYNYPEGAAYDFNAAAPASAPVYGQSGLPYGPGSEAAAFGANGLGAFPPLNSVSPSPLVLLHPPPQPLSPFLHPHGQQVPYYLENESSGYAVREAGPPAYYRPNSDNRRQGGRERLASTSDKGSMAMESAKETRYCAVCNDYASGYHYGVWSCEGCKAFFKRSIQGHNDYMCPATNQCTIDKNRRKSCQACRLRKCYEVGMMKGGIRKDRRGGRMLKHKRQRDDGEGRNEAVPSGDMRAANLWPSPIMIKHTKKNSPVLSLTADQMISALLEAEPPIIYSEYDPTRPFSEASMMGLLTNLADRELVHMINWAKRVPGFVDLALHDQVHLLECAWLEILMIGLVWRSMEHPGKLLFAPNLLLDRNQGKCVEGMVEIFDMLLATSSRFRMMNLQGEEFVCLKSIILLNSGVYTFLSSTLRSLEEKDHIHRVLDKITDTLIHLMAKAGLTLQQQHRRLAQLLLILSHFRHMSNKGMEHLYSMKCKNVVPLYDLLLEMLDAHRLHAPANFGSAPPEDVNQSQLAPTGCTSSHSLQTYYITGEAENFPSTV
Method: Fresh calf uteri obtained from a slaughterhouse were brought to the laboratory on ice, immediately trimmed of fat, and cut into small pieces; the pieces were frozen in liquid nitrogen and pulverized. The pulverized frozen tissue was lyophilized, and the desiccated powder was stored under vacuum in sealed vials at -80° C. The uterine powders were usually used within 1 month of pulverization. When needed, the powders were suspended in 0.1M Tris-HCl, pH 7.4/2.5 mM EDTA/5 mM dithiotreithol (TED buffer) at 2.5 mg/ml and homogenized at 0° C. in a Polytron homogenizer with two or three pulses at 15 seconds each. The homogenate was then centrifuged at 150,000×g for 60 minutes and the resulting supernatant (cytosol), containing approximately 1 mg of protein per ml, was used for binding studies on the estrogen receptor.
After the solvent was removed under a stream of N2, 250 μl of cytosol was added and the samples were incubated at 0°-2° C. overnight. The following morning, 250 μl of a 0.5% suspension of dextran-coated charcoal in TED buffer was added to the tubes which then were mixed and centrifuged at 5000×g for 10 minutes. The supernatant was assayed to determine bound radioactivity.
A saturation analysis of the estrogen receptor from calf uterus was conducted. […] Nonspecific binding, specific binding and total binding were determined in parallel incubations containing 0.7 μM DES.
A Scatchard analysis of the estrogen receptor from calf uterus was also conducted.

[2] = biological target: T2, estrogen receptor (calf uterine cytosol) (Bos taurus, UniProt P49884); test: Competition for the estrogen receptor in calf uterine cytosol; assay type: binding; settings: 125I-E2 0.22 nM, 3H-E2 0.74 nM
T2 construct: Fresh calf uteri obtained from a slaughterhouse; from tissue; host or cells: calf uterus, 150,000 x g cytosol from lyophilized powder
T2 sequence (P49884 1-596): T1 sequence (P49884 1-596)
Method: Several compounds, at the two indicated concentrations, were allowed to compete with both labeled steroids for sites in calf uterine cytosol. Incubations were overnight at 4° C., and bound and free steroids were separated with dextran-coated charcoal.

[3] = tested on: rat uterine cytosol (8S and 4S forms); test: Glycerol gradient sedimentation of labelled rat uterine cytosol; assay type: binding; settings: glycerol gradients, with and without 0.4M KCl; DES 7×10^-7 M
Method: The analysis was performed with glycerol rather than the usual sucrose because a more pronounced 8S peak was obtained in the glycerol gradients with both ^3 H- and ^125 I-labeled estradiol. Rat uterine cytosol was prepared as described in Example 4. […] Separate tubes also contained 0.4M KCl. At the end of the incubation, free steroid was removed by adding the incubation mixture to a tube containing a 5-mg pellet of dextran-coated charcoal. After shaking for 5 to 10 minutes at 0° C., the charcoal was removed by centrifugation. […] Fractions of four drops were collected from the bottom of the tube. Control tubes containing cytosol mixed with ^14 C-labeled bovine serum albumin (BSA) as a marker were also analyzed. The sedimintation pattern is illustrated in FIG. 2. The low-salt 8S form (FIG. 2, Curve A) is totally transformed into the 4S form by 0.4M KCl (FIG. 2, Curve B).

[4] = Tissue radioactivity 6 hours after injection into castrated female rats with and without DES; assay type: in vivo, Sprague-Dawley rats
Method: (§1) To deterine whether 16α-[^125 I]iodoestradiol would be recognized by estrogen-responsive tissues, it was injected into castrated female rats with and without diethylstilbestrol (DES); after 6 hours the concentration of radioactivity in the uterus was compared to that in several other tissues.
(§2) Female Sprague-Dawley rats (200 to 250 g) were castrated 48 hours before subcutaneous injection of ^125 I-labeled estradiol (1×10^6 count/min) dissolved in 10 μl of ethanol and 0.2 ml of saline. Twenty minutes before the administration of the iodinated estradiol, one group of rats (N=6) were injected with 5 μg of DES dissolved first in 50 μl of ethanol and then in 0.5 ml of saline. Another group of castrated rats (N=6) were injected with 0.5 ml of 10 percent ethanol in saline before receiving the radioactive steroid. The rats were killed 6 hours later and small pieces of the tissues were weighed and counted. All values are means ± standard deviations. To determine ether extractable radioactivity, the uterus, liver, and thyroid were homogenized in methanol and filtered. The filtrate was evaporated and the resulting residue was partitioned between ether and 0.1N NaHCO3. The ethereal solution was evaporated and counted and the results are tabulated below in Table I.
(§3) Several micrograms of 16α-iodoestradiol were added to the ether extract of the uterus and the mixture was submitted to high-pressure liquid chromatography. High pressure liquid chromatography was performed on a 250 by 4.6 mm Lichrosorb Diol column (merck) with methylene chloride at a flow rate of 1 ml/min. In this system 16α-iodoestradiol is eluted in 12 minutes and 16β-bromoestradiol in 8 minutes. […] The radioactivity in the thyroid gland, approximately 2000 count/min, is probably due to the uptake of free iodide arising from the metabolism of ^125 I-labeled estradiol in vivo and is equivalent to only 0.2 percent of the injected dose.

[5] = tested on: Rat Uterine Receptor; test: as above; assay type: in vivo, Sprague-Dawley rats
Method: as §1, §2, §3

Compound: C[C@]12CC[C@@H]3c4ccc(O)cc4CC[C@H]3[C@@H]1C[C@@H]([125I])[C@@H]2O [^125 I-E2, 16α-[^125 I]iodoestra-1,3,5(10)-triene-3,17β-diol]
- radioactivity bound (binding capacities) [1]: 122,000 cpm
- % B0 (initial specific binding of tracer alone) [2]: 40%
- displacement by DES of radioactivity bound to the 8S and 4S forms [3]: almost completely displaced by DES
- Ether-extractable radioactivity ([4]; Liver): 10-15%
- Ether-extractable radioactivity ([4]; Thyroid): 0-1%
- Ether-extractable radioactivity ([4]; Uterus): > 90%
- nature of the radioactive material in the uterus ([5]; HPLC of ether extract of uterus with 16α-iodoestradiol carrier): unmetabolized
- Radioactivity, With DES ([5]; Heart, 5 μg DES, 6 hours): 26 ± 7 count/min per 100 mg of tissue
- Radioactivity, Without DES ([5]; Heart, 6 hours): 23 ± 5 count/min per 100 mg of tissue
- Radioactivity, With DES ([5]; Kidney, 5 μg DES, 6 hours): 75 ± 20 count/min per 100 mg of tissue
- Radioactivity, Without DES ([5]; Kidney, 6 hours): 73 ± 33 count/min per 100 mg of tissue
- Radioactivity, With DES ([5]; Liver, 5 μg DES, 6 hours): 425 ± 105 count/min per 100 mg of tissue
- Radioactivity, Without DES ([5]; Liver, 6 hours): 446 ± 184 count/min per 100 mg of tissue
- Radioactivity, With DES ([5]; Lung, 5 μg DES, 6 hours): 56 ± 11 count/min per 100 mg of tissue
- Radioactivity, Without DES ([5]; Lung, 6 hours): 47 ± 23 count/min per 100 mg of tissue
- Radioactivity, With DES ([5]; Muscle, 5 μg DES, 6 hours): 18 ± 12 count/min per 100 mg of tissue
- Radioactivity, Without DES ([5]; Muscle, 6 hours): 33 ± 23 count/min per 100 mg of tissue
- Radioactivity, With DES ([5]; Serum, 5 μg DES, 6 hours): 68 ± 6 count/min per 100 mg of tissue
- Radioactivity, Without DES ([5]; Serum, 6 hours): 69 ± 11 count/min per 100 mg of tissue
- Radioactivity, With DES ([5]; Thyroid, entire organ, 5 μg DES, 6 hours): 2287 ± 805 count/min
- Radioactivity, Without DES ([5]; Thyroid, entire organ, 6 hours): 1839 ± 802 count/min
- Radioactivity, With DES ([5]; Uterus, 5 μg DES 20 min before, 6 hours): 73 ± 8 count/min per 100 mg of tissue
- Radioactivity, Without DES ([5]; Uterus, castrated rats, 6 hours after s.c. injection): 313 ± 150 count/min per 100 mg of tissue
- radioactivity in the thyroid gland as share of injected dose ([5]; thyroid gland): 0.2% of the injected dose
- radioactivity in the thyroid gland ([5]; thyroid gland, probably free iodide): approximately 2000 count/min
